ChEMBL document CHEMBL1201862, “PubChem BioAssay data set” (2004)
Activity calls are given as the source filed them.

Experiments:
[1] = reduced cellular PGC1a acetyl-lysine signal – cell-based, cherry-picked samples, dose response (AID 720514); assay type: functional;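 further: potency may reflect raised or lowered acetylation signal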
[2] = Luminescence-based cell-based high throughput dose response assay to identify activators of the DAF-12 from the parasite S. stercoralis (ssDAF-12).; assay type: functional
[3] = biological target: T1, Oxysterols receptor LXR-beta (Homo sapiens, UniProt P55055); assay: LXR agonists, Gal4 luciferase reporter, dose response, counter-screen for ssDAF-12 agonist project, cell-based, luminescence, HEK293, S. stercoralis campaign (AID 720737); assay type: functional; conditions: read-out: IC50 (the source's name)
T1 sequence (P55055 whole entry): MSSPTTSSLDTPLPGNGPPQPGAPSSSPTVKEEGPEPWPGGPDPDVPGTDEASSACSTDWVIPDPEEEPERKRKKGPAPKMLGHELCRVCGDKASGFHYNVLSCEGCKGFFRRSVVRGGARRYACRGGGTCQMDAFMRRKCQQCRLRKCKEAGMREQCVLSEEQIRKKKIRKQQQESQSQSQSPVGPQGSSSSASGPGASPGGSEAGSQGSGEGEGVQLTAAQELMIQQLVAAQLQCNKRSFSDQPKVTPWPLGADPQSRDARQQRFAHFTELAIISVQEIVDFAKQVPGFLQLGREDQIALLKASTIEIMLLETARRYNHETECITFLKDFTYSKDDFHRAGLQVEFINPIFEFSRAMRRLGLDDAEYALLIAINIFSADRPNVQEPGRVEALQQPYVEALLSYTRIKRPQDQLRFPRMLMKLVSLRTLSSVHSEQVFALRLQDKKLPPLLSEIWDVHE

[4] = glucagon-like peptide-1 release potency in STC-1, concentration-response, half-maximal inhibitory concentration in the STC-1 line (AID 1117345); assay type: functional, cell-based
[5] = cytotoxicity toward HT-29 cells – cell-based, CellTiter-Glo luminescence, IC50, dose response (AID 1117330); assay type: functional
[6] = Potency on glucagon-like peptide 1 release, dose-response in NCI-H716 cell line, half maximal inhibitory concentration (AID 1117344); assay type: functional, cell-based
[7] = RKO cell viability reduction, dose response, CellTiter-Glo luminescence (AID 1117322); assay type: functional
[8] = Reduced DLD-1 viability, concentration-response, CellTiter-Glo luminescence (AID 1117352); assay type: functional
[9] = CellTiter-Glo luminescence survival assay, SW480 colon tumor line, concentration-response curve, half-maximal inhibitory concentration (AID 1117338); assay type: functional
[10] = rise of 2N DNA cells, HeLa – IC50, dose response (AID 1117349); assay type: functional, cell-based
[11] = rise of 4N DNA cells, HeLa – IC50, dose response (AID 1117351); assay type: functional, cell-based
[12] = SNU-C1 cell viability reduction, dose response, CellTiter-Glo luminescence (AID 1117323); assay type: functional, cell-based
[13] = cytotoxicity toward HCT116 cells – cell-based, CellTiter-Glo luminescence, IC50, dose response (AID 1117332); assay type: functional; conditions: HCT-116
[14] = cytotoxicity toward Colo320 cells – cell-based, CellTiter-Glo luminescence, IC50, dose response (AID 1117334); assay type: functional; conditions: COLO 320
[15] = HCT116 cell viability decrease, GSK3B pretreatment – CellTiter-Glo, IC50, dose response (AID 1117339); assay type: functional; conditions: HCT-116
[16] = Late-stage results from the probe development effort to identify antagonists of arginine vasopressin receptor 1a (AVPR1a): fluorescence-based cell-based dose response OXTR inhibition counterscreen assay.; assay type: functional
[17] = biological target: Vasopressin V2 receptor (Homo sapiens, UniProt P30518); assay: Late-stage results from the probe development effort to identify antagonists of arginine vasopressin receptor 1a (AVPR1a): fluorescence-based cell-based dose response AVPR2 inhibition counterscreen assay.; assay type: functional
Sequence of Vasopressin V2 receptor (P30518 whole entry): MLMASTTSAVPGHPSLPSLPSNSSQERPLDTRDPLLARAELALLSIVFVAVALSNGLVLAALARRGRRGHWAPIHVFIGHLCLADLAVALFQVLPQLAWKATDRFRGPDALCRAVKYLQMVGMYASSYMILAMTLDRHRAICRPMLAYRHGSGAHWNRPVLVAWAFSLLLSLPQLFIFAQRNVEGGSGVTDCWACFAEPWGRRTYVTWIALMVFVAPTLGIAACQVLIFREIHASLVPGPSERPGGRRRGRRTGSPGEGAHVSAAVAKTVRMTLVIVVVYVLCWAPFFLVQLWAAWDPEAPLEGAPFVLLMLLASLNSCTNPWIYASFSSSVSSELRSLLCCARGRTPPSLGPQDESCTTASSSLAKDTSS

[18] = biological target: Vasopressin V1b receptor (Homo sapiens, UniProt P47901); assay: Late-stage results from the probe development effort to identify antagonists of arginine vasopressin receptor 1a (AVPR1a): fluorescence-based cell-based dose response AVPR1b inhibition counterscreen assay.; assay type: functional
Sequence of Vasopressin V1b receptor (P47901 whole entry): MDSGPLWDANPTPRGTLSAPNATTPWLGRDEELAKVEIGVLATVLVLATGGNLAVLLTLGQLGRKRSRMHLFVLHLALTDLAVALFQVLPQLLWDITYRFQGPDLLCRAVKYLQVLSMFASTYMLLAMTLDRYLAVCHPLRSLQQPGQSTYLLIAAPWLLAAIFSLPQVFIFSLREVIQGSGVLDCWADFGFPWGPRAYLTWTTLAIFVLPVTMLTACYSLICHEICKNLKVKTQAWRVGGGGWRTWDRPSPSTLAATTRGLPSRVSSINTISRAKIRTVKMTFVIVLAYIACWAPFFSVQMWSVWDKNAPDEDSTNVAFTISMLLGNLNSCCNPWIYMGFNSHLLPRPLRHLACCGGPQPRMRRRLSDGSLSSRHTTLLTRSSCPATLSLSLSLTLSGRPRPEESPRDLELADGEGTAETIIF

[19] = Late-stage results from the probe development effort to identify antagonists of arginine vasopressin receptor 1a (AVPR1a): fluorescence-based cell-based dose response AVPR1a inhibition assay.; assay type: functional
[20] = test system: Vero; assay: cells; assay type: functional; conditions: Chlorocebus sabaeus
[21] = test system: Vero; assay: mammalian cell viability reduction – secondary assay, cytotoxicity control for West Nile virus antiviral project, dose response (AID 1650); assay type: functional; conditions: Chlorocebus sabaeus
[22] = viability loss in THP-1 monocytes – THP-1 cells, cytotoxicity control for Vif-APOBEC3G degradation inhibitor project, dose response (AID 1117359); assay type: functional; conditions: THP-1
[23] = viability of uninfected HEp-2 cells – cell-based, HTS, cytotoxicity control for RSV inhibitor project, dose response (AID 2410); assay type: functional; conditions: human respiratory syncytial virus
[24] = biological target: G-protein coupled receptor 183 (Homo sapiens, UniProt P32249); assay: SAR confirmation of small molecule antagonists of the EBI2 receptor via a luminescent beta-arrestin assa.; assay type: functional
Sequence of G-protein coupled receptor 183 (P32249 whole entry): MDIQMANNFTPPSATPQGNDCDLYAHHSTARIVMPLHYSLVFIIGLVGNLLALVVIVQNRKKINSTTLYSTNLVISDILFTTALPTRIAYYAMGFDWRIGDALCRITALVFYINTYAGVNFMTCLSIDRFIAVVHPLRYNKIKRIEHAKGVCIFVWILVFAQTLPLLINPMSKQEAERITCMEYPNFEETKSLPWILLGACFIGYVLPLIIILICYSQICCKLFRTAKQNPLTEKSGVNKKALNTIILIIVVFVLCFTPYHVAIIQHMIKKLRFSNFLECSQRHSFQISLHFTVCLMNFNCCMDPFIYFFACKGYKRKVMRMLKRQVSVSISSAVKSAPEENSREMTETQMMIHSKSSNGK

[25] = Orthopox viral replication plaque formation Measured in Cell-Based and Microorganism Combination System Using Imaging - 2142-05_Inhibitor_Dose_DryPowder_Activity.; assay type: functional

N#Cc1c(N)c(C(=O)c2ccccc2)n2ccccc12
active: AC50 [1] 25.7 µM

COc1ccc(C(=O)c2ccccc2)cc1
inactive: IC50 [2] > 67.6 µM | EC50 [3] > 67.6 µM

Oc1ccc([C@H]2CNCc3c2ccc(O)c3O)cc1O
inactive: IC50 [4] > 20 µM | IC50 [5] > 20 µM | IC50 [6] 5.95 µM | IC50 [8] > 20 µM | IC50 [9] > 20 µM | IC50 [10] > 10 µM | IC50 [11] > 10 µM | IC50 [12] > 20 µM | IC50 [13] > 20 µM
active: IC50 [7] 0.0332 µM | IC50 [14] 0.466 µM | IC50 [15] 0.188 µM

COc1ccc(N(CC2CC2)C(=O)N2CCN(c3ccccc3C)CC2)cc1
active: IC50 [16] 0.051 µM | IC50 [17] 3.51 µM | IC50 [18] 5.8 µM | IC50 [19] 0.0038 µM

COc1ccc(C(=O)N/N=C/C23CC[C@@H](O)CC2(O)CC[C@@H]2[C@@H]3CCC3(C)C(C4=CC(=O)OC4)CCC23O)cc1 (stereo not given in full)
active: CC50 [20] 22.1 µM | CC50 [21] 43.5 µM | CC50 [22] 10.4 µM | CC50 [23] 12.5 µM

O=C(/C=C/c1ccc(Br)cc1)N1CCN(C(=O)C2CCCC2)CC1
active: IC50 [24] 0.00441 µM

C[C@@H](O)C#Cc1ccc2c(c1)O[C@@H](CN(C)S(=O)(=O)c1ccc(-c3ccccc3)cc1)[C@@H](C)CN([C@@H](C)CO)S2(=O)=O
active: AC50 [25] 12.3 µM
